Data published in PubChem BioAssay AID256 (DTP/NCI, 2004).
Several values for one entry are separate records, joined by “and”; a condition that tells them apart may be missing. Identical values can stand only once. Inconclusive results and toxic doses are left out.

System: CD2F1 mice, L1210 leukemia ip, survival T/C
Test: NCI In Vivo Anticancer Drug Screen. Data for tumor model L1210 Leukemia (intraperitoneal) in CD2F1 (CDF1) mice
Conditions: higher = longer survival
Outline: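 Vehicle-treated tumor-bearing mice served as controls (C) for compound-treated mice (T). Reported figure is T divided by C.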

Question: How did the T/C (endpoint: mean survival time, dose: 1.0 mg/kg/injection, schedule: Q01DX009 (ip), vehicle: saline) turn out when `COc1cc(NS(C)(=O)=O)ccc1Nc1c2ccccc2nc2ccccc12` was run?
Answer: 110 % of control

Question: What about the T/C (endpoint: mean survival time, dose: 1.0 mg/kg/injection, schedule: Q01DX009 (sc), vehicle: saline) of the same compound?
Answer: 101 % of control

Question: And the T/C (endpoint: mean survival time, dose: 1.8 mg/kg/injection, schedule: Q01DX009 (ip), vehicle: other)?
Answer: 185 % of control

Question: What about the T/C (endpoint: mean survival time, dose: 2.0 mg/kg/injection, schedule: Q01DX009 (sc), vehicle: saline) of the same compound?
Answer: 104 % of control

Question: What about the T/C (endpoint: mean survival time, dose: 2.0 mg/kg/injection, schedule: Q03HX008 (ip), vehicle: saline) of the same compound?
Answer: 150 % of control

Question: And the T/C (endpoint: mean survival time, dose: 2.0 mg/kg/injection, schedule: Q03HX024 (ip), vehicle: saline)?
Answer: 151 % of control

Question: And the T/C (endpoint: mean survival time, dose: 3.75 mg/kg/injection, schedule: Q01DX009 (ip), vehicle: other)?
Answer: 173 % of control and 174 % of control

Question: What about the T/C (endpoint: mean survival time, dose: 3.75 mg/kg/injection, schedule: Q04DX003 (ip), vehicle: other) of the same compound?
Answer: 98 % of control

Question: And the T/C (endpoint: mean survival time, dose: 4.0 mg/kg/injection, schedule: Q01DX009 (ip), vehicle: saline)?
Answer: 155 % of control and 218 % of control and 161 % of control

Question: And the T/C (endpoint: mean survival time, dose: 4.0 mg/kg/injection, schedule: Q01DX009 (oral), vehicle: saline)?
Answer: 102 % of control

Question: And the T/C (endpoint: mean survival time, dose: 4.0 mg/kg/injection, schedule: Q01DX009 (sc), vehicle: saline)?
Answer: 113 % of control

Question: What about the T/C (endpoint: mean survival time, dose: 4.0 mg/kg/injection, schedule: Q03HX008 (ip), vehicle: saline) of the same compound?
Answer: 164 % of control

Question: What about the T/C (endpoint: mean survival time, dose: 4.0 mg/kg/injection, schedule: Q03HX016 (ip), vehicle: saline) of the same compound?
Answer: 346 % of control

Question: And the T/C (endpoint: mean survival time, dose: 4.0 mg/kg/injection, schedule: Q03HX024 (ip), vehicle: saline)?
Answer: 122 % of control

Question: What about the T/C (endpoint: mean survival time, dose: 7.5 mg/kg/injection, schedule: Q01DX009 (ip), vehicle: other) of the same compound?
Answer: 91 % of control and 93 % of control

Question: What about the T/C (endpoint: mean survival time, dose: 7.5 mg/kg/injection, schedule: Q04DX003 (ip), vehicle: other) of the same compound?
Answer: 150 % of control

Question: And the T/C (endpoint: mean survival time, dose: 8.0 mg/kg/injection, schedule: Q01DX009 (oral), vehicle: saline)?
Answer: 113 % of control

Question: What about the T/C (endpoint: mean survival time, dose: 8.0 mg/kg/injection, schedule: Q03HX008 (ip), vehicle: saline) of the same compound?
Answer: 86 % of control

Question: What about the T/C (endpoint: mean survival time, dose: 8.0 mg/kg/injection, schedule: Q03HX016 (ip), vehicle: saline) of the same compound?
Answer: 93 % of control

Question: What about the T/C (endpoint: mean survival time, dose: 15.0 mg/kg/injection, schedule: Q01DX001 (ip), vehicle: other) of the same compound?
Answer: 154 % of control

Question: And the T/C (endpoint: mean survival time, dose: 15.0 mg/kg/injection, schedule: Q04DX003 (ip), vehicle: other)?
Answer: 124 % of control and 221 % of control

Question: And the T/C (endpoint: mean survival time, dose: 16.0 mg/kg/injection, schedule: Q01DX001 (sc), vehicle: saline)?
Answer: 112 % of control

Question: And the T/C (endpoint: mean survival time, dose: 16.0 mg/kg/injection, schedule: Q01DX009 (oral), vehicle: saline)?
Answer: 102 % of control

Question: What about the T/C (endpoint: mean survival time, dose: 16.0 mg/kg/injection, schedule: Q01DX009 (sc), vehicle: saline) of the same compound?
Answer: 101 % of control

Question: And the T/C (endpoint: mean survival time, dose: 16.0 mg/kg/injection, schedule: Q04DX003 (ip), vehicle: saline)?
Answer: 150 % of control

Question: And the T/C (endpoint: mean survival time, dose: 32.0 mg/kg/injection, schedule: Q01DX001 (sc), vehicle: saline)?
Answer: 117 % of control

Question: What about the T/C (endpoint: mean survival time, dose: 32.0 mg/kg/injection, schedule: Q01DX009 (oral), vehicle: saline) of the same compound?
Answer: 93 % of control

Question: What about the T/C (endpoint: mean survival time, dose: 32.0 mg/kg/injection, schedule: Q04DX003 (ip), vehicle: saline) of the same compound?
Answer: 153 % of control

Question: What about the T/C (endpoint: mean survival time, dose: 64.0 mg/kg/injection, schedule: Q01DX001 (oral), vehicle: saline) of the same compound?
Answer: 109 % of control

Question: And the T/C (endpoint: mean survival time, dose: 64.0 mg/kg/injection, schedule: Q01DX001 (sc), vehicle: saline)?
Answer: 119 % of control

Question: What about the T/C (endpoint: mean survival time, dose: 64.0 mg/kg/injection, schedule: Q08DX002 (ip), vehicle: saline) of the same compound?
Answer: 154 % of control

Question: What about the T/C (endpoint: mean survival time, dose: 128.0 mg/kg/injection, schedule: Q01DX001 (ip), vehicle: saline) of the same compound?
Answer: 92 % of control

Question: What about the T/C (endpoint: mean survival time, dose: 128.0 mg/kg/injection, schedule: Q01DX001 (oral), vehicle: saline) of the same compound?
Answer: 114 % of control

Question: What about the T/C (endpoint: mean survival time, dose: 128.0 mg/kg/injection, schedule: Q01DX001 (sc), vehicle: saline) of the same compound?
Answer: 117 % of control

Question: And the T/C (endpoint: mean survival time, dose: 256.0 mg/kg/injection, schedule: Q01DX001 (oral), vehicle: saline)?
Answer: 104 % of control

Question: And the T/C (endpoint: mean survival time, dose: 256.0 mg/kg/injection, schedule: Q01DX001 (sc), vehicle: saline)?
Answer: 118 % of control

Question: And the T/C (endpoint: mean survival time, dose: 512.0 mg/kg/injection, schedule: Q01DX001 (oral), vehicle: saline)?
Answer: 112 % of control

Question: And the T/C (endpoint: median survival time, dose: 0.25 mg/kg/injection, schedule: Q01DX009 (sc), vehicle: other)?
Answer: 112 % of control

Question: And the T/C (endpoint: median survival time, dose: 0.25 mg/kg/injection, schedule: Q03HX016 (ip), vehicle: other)?
Answer: 118 % of control

Question: And the T/C (endpoint: median survival time, dose: 0.5 mg/kg/injection, schedule: Q01DX009 (sc), vehicle: other)?
Answer: 112 % of control

Question: What about the T/C (endpoint: median survival time, dose: 1.0 mg/kg/injection, schedule: Q01DX009 (ip), vehicle: saline with Tween-80) of the same compound?
Answer: 165 % of control

Question: And the T/C (endpoint: median survival time, dose: 1.0 mg/kg/injection, schedule: Q01DX009 (oral), vehicle: other)?
Answer: 100 % of control

Question: And the T/C (endpoint: median survival time, dose: 1.0 mg/kg/injection, schedule: Q01DX009 (sc), vehicle: other)?
Answer: 112 % of control

Question: What about the T/C (endpoint: median survival time, dose: 1.0 mg/kg/injection, schedule: Q03HX008 (ip), vehicle: other) of the same compound?
Answer: 162 % of control

Question: What about the T/C (endpoint: median survival time, dose: 1.0 mg/kg/injection, schedule: Q03HX016 (ip), vehicle: other) of the same compound?
Answer: 150 % of control

Question: And the T/C (endpoint: median survival time, dose: 1.0 mg/kg/injection, schedule: Q03HX024 (ip), vehicle: other)?
Answer: 175 % of control

Question: What about the T/C (endpoint: median survival time, dose: 2.0 mg/kg/injection, schedule: Q01DX001 (ip), vehicle: other) of the same compound?
Answer: 118 % of control

Question: What about the T/C (endpoint: median survival time, dose: 2.0 mg/kg/injection, schedule: Q01DX001 (sc), vehicle: other) of the same compound?
Answer: 112 % of control

Question: What about the T/C (endpoint: median survival time, dose: 2.0 mg/kg/injection, schedule: Q01DX009 (ip), vehicle: other) of the same compound?
Answer: 150 % of control and 161 % of control

Question: And the T/C (endpoint: median survival time, dose: 2.0 mg/kg/injection, schedule: Q01DX009 (oral), vehicle: other)?
Answer: 100 % of control

Question: What about the T/C (endpoint: median survival time, dose: 2.0 mg/kg/injection, schedule: Q03HX008 (ip), vehicle: other) of the same compound?
Answer: 181 % of control

Question: What about the T/C (endpoint: median survival time, dose: 2.0 mg/kg/injection, schedule: Q03HX016 (ip), vehicle: other) of the same compound?
Answer: 181 % of control

Question: What about the T/C (endpoint: median survival time, dose: 2.0 mg/kg/injection, schedule: Q04DX003 (ip), vehicle: other) of the same compound?
Answer: 120 % of control

Question: What about the T/C (endpoint: median survival time, dose: 2.59 mg/kg/injection, schedule: Q04DX003 (ip), vehicle: other) of the same compound?
Answer: 124 % of control

Question: What about the T/C (endpoint: median survival time, dose: 4.0 mg/kg/injection, schedule: Q01DX001 (sc), vehicle: other) of the same compound?
Answer: 112 % of control

Question: What about the T/C (endpoint: median survival time, dose: 4.0 mg/kg/injection, schedule: Q01DX009 (ip), vehicle: other) of the same compound?
Answer: 193 % of control and 200 % of control

Question: What about the T/C (endpoint: median survival time, dose: 4.0 mg/kg/injection, schedule: Q01DX009 (ip), vehicle: saline with Tween-80) of the same compound?
Answer: 151 % of control (2×) and 163 % of control

Question: And the T/C (endpoint: median survival time, dose: 4.0 mg/kg/injection, schedule: Q01DX009 (oral), vehicle: other)?
Answer: 112 % of control

Question: What about the T/C (endpoint: median survival time, dose: 4.0 mg/kg/injection, schedule: Q01DX009 (sc), vehicle: other) of the same compound?
Answer: 150 % of control

Question: What about the T/C (endpoint: median survival time, dose: 8.0 mg/kg/injection, schedule: Q01DX001 (oral), vehicle: other) of the same compound?
Answer: 112 % of control

Question: What about the T/C (endpoint: median survival time, dose: 8.0 mg/kg/injection, schedule: Q01DX001 (sc), vehicle: other) of the same compound?
Answer: 112 % of control

Question: And the T/C (endpoint: median survival time, dose: 8.0 mg/kg/injection, schedule: Q01DX009 (ip), vehicle: other)?
Answer: 87 % of control and 88 % of control

Question: What about the T/C (endpoint: median survival time, dose: 8.0 mg/kg/injection, schedule: Q01DX009 (oral), vehicle: other) of the same compound?
Answer: 150 % of control

Question: And the T/C (endpoint: median survival time, dose: 8.0 mg/kg/injection, schedule: Q01DX009 (sc), vehicle: other)?
Answer: 112 % of control

Question: What about the T/C (endpoint: median survival time, dose: 8.0 mg/kg/injection, schedule: Q04DX003 (ip), vehicle: other) of the same compound?
Answer: 181 % of control

Question: And the T/C (endpoint: median survival time, dose: 8.0 mg/kg/injection, schedule: Q08DX002 (ip), vehicle: other)?
Answer: 156 % of control

Question: What about the T/C (endpoint: median survival time, dose: 12.0 mg/kg/injection, schedule: Q04DX003 (ip), vehicle: other) of the same compound?
Answer: 186 % of control

Question: And the T/C (endpoint: median survival time, dose: 16.0 mg/kg/injection, schedule: Q01DX009 (ip), vehicle: other)?
Answer: 90 % of control

Question: What about the T/C (endpoint: median survival time, dose: 16.0 mg/kg/injection, schedule: Q01DX009 (oral), vehicle: other) of the same compound?
Answer: 87 % of control

Question: What about the T/C (endpoint: median survival time, dose: 16.0 mg/kg/injection, schedule: Q01DX009 (sc), vehicle: other) of the same compound?
Answer: 87 % of control

Question: What about the T/C (endpoint: median survival time, dose: 16.0 mg/kg/injection, schedule: Q04DX003 (ip), vehicle: other) of the same compound?
Answer: 150 % of control and 175 % of control

Question: What about the T/C (endpoint: median survival time, dose: 16.0 mg/kg/injection, schedule: Q08DX002 (ip), vehicle: other) of the same compound?
Answer: 175 % of control

Question: And the T/C (endpoint: median survival time, dose: 20.0 mg/kg/injection, schedule: Q04DX003 (ip), vehicle: other)?
Answer: 98 % of control

Question: And the T/C (endpoint: median survival time, dose: 32.0 mg/kg/injection, schedule: Q04DX003 (ip), vehicle: other)?
Answer: 106 % of control

Question: And the T/C (endpoint: median survival time, dose: 64.0 mg/kg/injection, schedule: Q01DX001 (oral), vehicle: other)?
Answer: 150 % of control

Question: And the T/C (endpoint: median survival time, dose: 64.0 mg/kg/injection, schedule: Q01DX001 (sc), vehicle: other)?
Answer: 156 % of control

Question: And the T/C (endpoint: median survival time, dose: 128.0 mg/kg/injection, schedule: Q01DX001 (sc), vehicle: other)?
Answer: 118 % of control
